The numbers were not newly measured in patent US12268209B2, “Liquid sulfonylurea-containing herbicidal compositions” (Mitsui AgriScience International S.A./N.V., priority 2014, dated 2025), which cites them from elsewhere.

The conditions of data set [1]: after 5 days, depending on the selected solvent; 52° C.
For data set [2] the following is noted: after one week of storage at 40° C.; compositions of WO 2007/027863 A2.

Consider `COC(=O)c1ccccc1S(=O)(=O)NC(=O)Nc1nc(C)nc(OC)n1` [metsulfuron-methyl, methyl 2-[[[[(4-methoxy-6-methyl-1,3,5-triazin-2-yl)amino]carbonyl]amino]sulfonyl]benzoate], for which the metsulfuron methyl lost in data set [1] is on record as 25-30%.
Consider `COC(=O)c1ccccc1S(=O)(=O)NC(=O)N(C)c1nc(C)nc(OC)n1` [tribenuron-methyl, methyl 2-[[[[N-(4-methoxy-6-methyl-1,3,5-triazin-2-yl)-N-methylamino]carbonyl]amino]-sulfonyl]benzoate], for which, in data set [2], the tribenuron-methyl lost result is on record as “up to 66.5%”.
